# Laboratory results reported in patent publication US11066423B2, “Monomeric bimetal hydroxycitric acid compounds and methods of making and using the same” (GLYKON TECHNOLOGIES GROUP, LLC, priority 2016, dated 2021).
# What was measured:
# [1] = test system: de novo lipogenesis (DNL); conditions: obese subjects, 6 g HCA/day for 5 days; cited from earlier work
# [2] = test system: de novo lipogenesis (DNL); experiment: Decrease of de novo lipogenesis in rats (literature); format: in vivo; conditions: extrapolated from rats
# Source text: Dosages of various HCA compositions found to be effective are quite large, indeed beyond the normal range for pharmaceutical products, with efficacy that is highly variable. […] A later study found a significant, yet limited effect after 7 days of a diet designed specifically to induce de novo lipogenesis in humans. (Physiol Behay. 2006 Jul. 30; 88(4-5):371-81). See also, Nutr Metab (Lond). 2005 Sep. 13; 2:23.
# [3] = Conductivity of solutions (electrical conductivity, HACH Conductivity/TDS meter); format: physicochemical
# Source text: The structure of the subject compounds (e.g., as described herein) can be deduced using a conductance meter to observe the extent of dissociate of the first and/or second metals from the compounds. In an experiment described below equimolar samples and comparative electrolyte conductance to K-acetate solution as a standard, data may be obtained which is characteristic of electrolyte binary conductants. […] The KMgHCA solution in water may have a pH 8-10 depending on the concentration. Under this condition, the heterocyclic anion formed will tend toward a stable form rather than an ionizable one.
# Several experiments investigating the electrical conductivities of solutions of KMgHCA, KZnHCA and KMnHCA were performed. The equipment used was HACH Conductivity/TDS meter, P/N=4460-00.
# Materials: KMgHCA.4H2O, KZnHCA.2H2O, KMnHCA.2H2O were prepared using methods described herein. KC2H3O2 and […] was obtained from Merck. H2O used was demineralized water.
# General procedure: All the HCA compounds and Acetate were weighed and placed in a volumetric flask and dissolved with demineralized water to one liter solution and then they were tested the conductivity (EC).
# Osteoporosis = experiment: Example 14: comparison of KCaHCA and/or KMgHCA compositions, single subject; format: in vivo, human; conditions: for symptoms of osteoporosis: 200 mg 3 times a day after meals; for subject's condition during the regimen: 200 mg doses 3 times a day, sequential regimens in the same subject after 3 months of the blend
# Method: • Subject: (cited as Example 12, above) • • Problem: Osteoporosis Treatment: Materials were consumed 3 times a day after meals. • Experiment 1. Blending 150 mg KMgHCA.8H2O+50 mg KCaHCA.3H2O • A 200 mg mixture of KCaHCA (25%) and KMgHCA (75%) prepared according to the subject methods was used. The actual percentage of calcium was (40/338)×25%=2.96%. Since KCaHCA.3H2O was used the percentage of magnesium in the composition was (24/412)×75%=4.37%. Since KMgHCA.8H2O was used, the ratio Ca:Mg=0.15:0.36 in mmol. • Experiment 2. 200 mg KMgHCA.8H2O • Experiment 3.
# [4] = test system: osteoporosis and calcification on hand and leg; experiment: Example 13: comparison of different bimetal regimes (KMg vs. KCa vs. combination), two subjects; format: in vivo, human; parameters: key to Treatment performance: + +: very good performance; + −: good but slight complaint
# Method: Subject I: a person, 40 kg (cited in Example 11, above)
# Subject II: a person; 72 kg
# • Treatment: A. Mixture 25% KCa HCA+75% KMg HCA bimetals (100-200 mg) • B. Only KMg HCA bimetal Results: […]
# [5] = cited from earlier work
# [6] = 0.3 mmol/l in demineralized water, no additive
smiles,measurement,setting,value
"O=C(O)CC(O)(C(=O)O)C(O)C(=O)O (stereo not drawn) [HCA, Hydroxycitric acid]",inhibition of DNL / promotion of fatty acid oxidation,[1],failed to inhibit DNL
same,effective dose extrapolated to a 70 kg human being,[2],approximately 4.5 g/day
"CC(=O)[O-].[K+] [KC2H3O2, K-acetate, reference compound]",E. C (μS/cm),[3]; [6],56.06 μS/cm
O=C([O-])C[C@@](O)(C(=O)[O-])[C@H](O)C(=O)[O-].[Ca+2].[K+] [KCaHCA],symptoms of osteoporosis,Osteoporosis,not effective
same,subject's condition during the regimen,Osteoporosis,unable to move their leg
"O=C1CC(O)(C(O)C(=O)[O-])C(=O)[O][Mg][O]1.[K+] (stereo not drawn) [KMgHCA, Potassium Magnesium Bimetal HCA Compound]",symptoms of osteoporosis,Osteoporosis,partial improvement
same,subject's condition during the regimen,Osteoporosis,slight difficult to walk because feeling of burning sensation in their feet
same,Treatment performance,[4]; Patient II (72 kg),+ −
same,observed result following treatment,[4]; Subject II,could stand on their feet
same,reduction of symptoms,[4]; Subject II,partial reduction of symptoms
same,κ value contribution of Mg—O bond (half of the 2 bond contribution),[3]; 0.3 mmol/l,2.095 μS/cm
same,E. C (μS/cm),[3]; [6],60.25 μS/cm
same,E. C (μS/cm),"[3]; 0.3 mmol/l, additive 10 mg gliserol",60.23 μS/cm
same,E. C (μS/cm),"[3]; 0.3 mmol/l, additive 10 mg glucose",60.29 μS/cm
same,2 bond of Mg—O contribution to κ value,[3]; run 2 minus run 1 (60.25-56.06),~4.19 μS/cm
"O=C1CC(O)(C(O)C(=O)[O][Mg][O]C(=O)C(O)C2(O)CC(=O)[O][Mg][O]C2=O)C(=O)[O][Mg][O]1 (stereo not drawn) [Mg3(HCA)2•2H2O, reference compound]",E. C (μS/cm),[3]; 0.1 mmol/l in demineralized water (equimolar in Mg2+ to run 8),31.2 μS/cm
"CC(=O)[O-].CC(=O)[O-].O.O.O.O.[Mg+2] [Mg(CH3COO)2•4H2O, reference compound]",E. C (μS/cm),[3]; [6],32.3 μS/cm
O=C(O)CO [glycolic acid],pKa,[5],approx 3.83
